For one molecule, IC50 and MIC results are on record in US9957247B2, “SecA inhibitors and methods of making and using thereof” (Georgia State University Research Foundation, Inc., priority 2012, dated 2018).

Values after ≈ are worked out from the molar mass of the structure shown. Where two headings read alike, the source gives them in different places. Where only a bound is given, the exact number is not on record here.

One may read the IC50 as the concentration needed to halve the response being measured.

Assay [1] concerns the target T1, BsSecA (Bacillus subtilis, UniProt P28366). The experiment in a line: biochemical. The class given is biochemical, B. subtilis.
For assay [2], the target named is T2, EcSecA (Escherichia coli, UniProt P10408). Kind of assay: biochemical. Conditions: IC50, Protein Translocation, Table 1.
Target sequence in this assay (P0AG99 whole entry): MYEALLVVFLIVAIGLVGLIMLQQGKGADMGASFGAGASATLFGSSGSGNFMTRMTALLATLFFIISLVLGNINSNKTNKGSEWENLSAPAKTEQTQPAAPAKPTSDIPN
Target sequence in this assay (P10408 whole entry): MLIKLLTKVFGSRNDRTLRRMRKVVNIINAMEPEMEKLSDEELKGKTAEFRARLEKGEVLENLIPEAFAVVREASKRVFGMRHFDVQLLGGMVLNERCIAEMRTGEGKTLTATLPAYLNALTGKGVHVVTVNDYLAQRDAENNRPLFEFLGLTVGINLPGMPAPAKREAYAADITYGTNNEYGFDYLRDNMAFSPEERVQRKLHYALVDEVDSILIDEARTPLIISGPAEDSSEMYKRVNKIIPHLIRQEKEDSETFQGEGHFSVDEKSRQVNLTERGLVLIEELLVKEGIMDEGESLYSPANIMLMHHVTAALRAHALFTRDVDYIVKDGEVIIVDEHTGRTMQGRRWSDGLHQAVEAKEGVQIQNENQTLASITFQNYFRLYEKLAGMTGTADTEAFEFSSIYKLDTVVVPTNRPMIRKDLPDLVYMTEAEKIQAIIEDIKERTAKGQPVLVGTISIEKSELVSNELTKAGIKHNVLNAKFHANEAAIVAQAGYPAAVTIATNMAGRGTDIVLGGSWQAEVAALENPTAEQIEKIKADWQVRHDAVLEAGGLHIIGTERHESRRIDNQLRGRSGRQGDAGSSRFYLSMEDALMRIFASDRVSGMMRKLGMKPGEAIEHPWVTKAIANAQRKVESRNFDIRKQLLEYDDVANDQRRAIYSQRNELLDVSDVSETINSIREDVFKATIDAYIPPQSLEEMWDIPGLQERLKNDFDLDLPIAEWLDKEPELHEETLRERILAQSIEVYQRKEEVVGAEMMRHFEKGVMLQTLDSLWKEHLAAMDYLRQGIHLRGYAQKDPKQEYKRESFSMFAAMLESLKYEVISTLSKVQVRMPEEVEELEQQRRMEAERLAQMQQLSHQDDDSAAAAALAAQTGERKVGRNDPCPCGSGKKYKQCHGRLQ
Target sequence in this assay (P0AGA2 whole entry, further chain): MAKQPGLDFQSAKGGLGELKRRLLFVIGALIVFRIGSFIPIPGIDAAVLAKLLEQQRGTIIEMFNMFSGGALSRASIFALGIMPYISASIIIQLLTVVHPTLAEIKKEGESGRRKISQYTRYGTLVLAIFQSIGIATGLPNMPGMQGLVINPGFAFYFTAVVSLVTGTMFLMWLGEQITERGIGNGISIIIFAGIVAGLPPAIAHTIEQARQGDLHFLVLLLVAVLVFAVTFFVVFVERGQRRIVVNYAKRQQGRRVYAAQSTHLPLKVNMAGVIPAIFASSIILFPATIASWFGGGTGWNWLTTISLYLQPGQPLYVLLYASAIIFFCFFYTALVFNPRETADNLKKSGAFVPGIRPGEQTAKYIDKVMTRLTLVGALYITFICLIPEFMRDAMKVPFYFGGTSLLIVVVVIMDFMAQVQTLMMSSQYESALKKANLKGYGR
Target sequence in this assay (P0AG96 whole entry, further chain): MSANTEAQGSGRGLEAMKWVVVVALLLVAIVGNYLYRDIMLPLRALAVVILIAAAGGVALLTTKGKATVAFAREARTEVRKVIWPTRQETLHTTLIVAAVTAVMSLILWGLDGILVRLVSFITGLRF
For the next assay, the system named is S. aureus Mu50. Kind of assay: Bacteriostatic effect, S. aureus Mu50. The note with it: Staphylococcus aureus, MU50, read-out: MIC95 against drug resistant S. aureus Mu50.
A further assay deals with BaSecA1 (Bacillus anthracis, UniProt Q81X26). The experiment in a line: cell-based. The note with it: read-out: IC50, Ion Channel activity, BGaSecA 1.
BaSecA1, sequence (Q81X26 whole entry, looked up): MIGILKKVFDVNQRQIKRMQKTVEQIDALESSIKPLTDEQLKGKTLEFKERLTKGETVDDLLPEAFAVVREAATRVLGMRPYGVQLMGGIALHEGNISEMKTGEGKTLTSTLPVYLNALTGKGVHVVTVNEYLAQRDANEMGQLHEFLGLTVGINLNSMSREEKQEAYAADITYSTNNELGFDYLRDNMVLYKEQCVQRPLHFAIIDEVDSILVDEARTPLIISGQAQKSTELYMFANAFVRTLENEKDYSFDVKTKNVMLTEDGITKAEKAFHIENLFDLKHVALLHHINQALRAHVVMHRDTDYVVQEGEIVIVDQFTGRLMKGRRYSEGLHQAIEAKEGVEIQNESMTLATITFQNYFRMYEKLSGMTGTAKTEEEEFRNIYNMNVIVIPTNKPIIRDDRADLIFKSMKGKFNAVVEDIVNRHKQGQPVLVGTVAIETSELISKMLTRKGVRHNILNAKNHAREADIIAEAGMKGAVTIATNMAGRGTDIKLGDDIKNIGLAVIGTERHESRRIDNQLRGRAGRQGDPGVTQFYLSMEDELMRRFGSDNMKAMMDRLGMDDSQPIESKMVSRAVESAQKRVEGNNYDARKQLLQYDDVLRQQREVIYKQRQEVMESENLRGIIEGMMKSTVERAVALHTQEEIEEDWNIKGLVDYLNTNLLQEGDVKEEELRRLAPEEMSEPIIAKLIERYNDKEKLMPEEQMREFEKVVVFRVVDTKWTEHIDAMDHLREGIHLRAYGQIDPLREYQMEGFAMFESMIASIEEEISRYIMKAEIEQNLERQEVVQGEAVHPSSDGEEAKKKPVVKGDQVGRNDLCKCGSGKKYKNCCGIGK
A further assay has as its target BsSecA2. The note with it: read-out: IC50, Intrinsic ATPase, BsSecA2; Table 1.
Another assay concerns the target PaSecA (Pseudomonas aeruginosa, UniProt Q9LCT3). Kind of assay: cell-based. Conditions: IC50, Ion Channel activity, PASecA, Table 1. It is filed as cell-based.
In another assay the target is EcSecA N68 (Escherichia coli, UniProt P10408). Kind of assay: biochemical. It is filed as biochemical, E. coli. Conditions: Table 1; read-out: IC50, Intrinsic ATPase, EcSecA N68.
EcSecA N68, sequence (P10408 1-610): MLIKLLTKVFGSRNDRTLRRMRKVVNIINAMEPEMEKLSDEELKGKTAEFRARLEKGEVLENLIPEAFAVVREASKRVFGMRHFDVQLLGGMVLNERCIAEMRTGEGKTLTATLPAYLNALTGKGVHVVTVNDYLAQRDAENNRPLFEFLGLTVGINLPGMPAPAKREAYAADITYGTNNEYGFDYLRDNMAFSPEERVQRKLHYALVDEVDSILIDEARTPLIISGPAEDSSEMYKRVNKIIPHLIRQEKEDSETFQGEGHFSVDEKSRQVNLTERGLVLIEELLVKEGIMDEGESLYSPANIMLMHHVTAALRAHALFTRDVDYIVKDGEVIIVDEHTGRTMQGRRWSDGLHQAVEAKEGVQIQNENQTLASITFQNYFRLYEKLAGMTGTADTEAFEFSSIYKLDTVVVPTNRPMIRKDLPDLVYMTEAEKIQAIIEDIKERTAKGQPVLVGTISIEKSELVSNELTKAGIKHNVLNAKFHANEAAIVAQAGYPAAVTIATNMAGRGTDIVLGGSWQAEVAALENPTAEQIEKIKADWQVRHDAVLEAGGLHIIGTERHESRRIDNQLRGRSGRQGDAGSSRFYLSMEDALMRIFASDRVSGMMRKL
The target of a further assay is MsSecA (Mycolicibacterium smegmatis, UniProt P71533). The experiment in a line: SecA-liposomes ion-channel activity in oocytes, MsSecA. It is filed as cell-based. Conditions: Table 1.
Another assay deals with SpSecA (Streptococcus pyogenes, UniProt Q99Y96). It is filed as cell-based. The note with it: read-out: IC50, Ion Channel activity, SpSecA.
The target in assay [3] is T2, EcSecA. The note with it: read-out: IC50, Ion Channel activity, EcSecA; Table 1.
Target sequence in this assay (P10408 whole entry): as the sequence (P10408 whole entry) above
Another assay concerns S. pyogenes, MGAS5005. The experiment in a line: MIC95, S. pyogenes MGAS5005. It is filed as cell-based. The note with it: Streptococcus pyogenes, MGAS5005; read-out: MIC95, S. pyogenes MGAS5005.
The next assay addresses T3, SaSecA2 (Staphylococcus aureus, UniProt Q2FUW6).
T3 sequence (Q2FUW6 1-796): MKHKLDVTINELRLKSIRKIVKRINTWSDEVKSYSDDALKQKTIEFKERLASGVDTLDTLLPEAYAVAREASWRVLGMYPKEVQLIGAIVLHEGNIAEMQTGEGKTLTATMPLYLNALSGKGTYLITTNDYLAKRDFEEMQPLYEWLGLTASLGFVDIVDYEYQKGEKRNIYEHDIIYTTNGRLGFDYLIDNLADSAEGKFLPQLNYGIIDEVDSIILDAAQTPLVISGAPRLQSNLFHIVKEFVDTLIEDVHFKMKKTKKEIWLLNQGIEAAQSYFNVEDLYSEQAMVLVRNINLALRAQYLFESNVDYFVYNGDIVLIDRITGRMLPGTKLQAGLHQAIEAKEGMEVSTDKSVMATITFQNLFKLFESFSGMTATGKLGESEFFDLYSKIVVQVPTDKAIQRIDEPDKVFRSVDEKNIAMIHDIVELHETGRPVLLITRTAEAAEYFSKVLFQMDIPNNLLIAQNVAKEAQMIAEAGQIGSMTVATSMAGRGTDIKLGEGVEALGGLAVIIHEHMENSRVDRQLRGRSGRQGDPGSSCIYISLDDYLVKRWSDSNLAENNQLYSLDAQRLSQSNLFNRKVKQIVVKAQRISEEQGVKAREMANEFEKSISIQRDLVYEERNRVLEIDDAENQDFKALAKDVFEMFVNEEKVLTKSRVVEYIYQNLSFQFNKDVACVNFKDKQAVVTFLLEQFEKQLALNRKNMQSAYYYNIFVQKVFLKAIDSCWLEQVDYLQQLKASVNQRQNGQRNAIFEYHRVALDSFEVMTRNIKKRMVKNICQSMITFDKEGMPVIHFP
Kind of assay: ATPase activity assay (malachite green), SaSecA2. Conditions: IC50, Intrinsic ATPase, SaSecA2, Table 1.

Assay [4] concerns the target T1, BsSecA. The experiment in a line: cell-based. Set-up: species or system B. subtilis. The note with it: Table 1; read-out: IC50, Ion Channel activity, BsSecA.
Assay [5] deals with T2, EcSecA. The note with it: read-out: IC50, Translocation ATPase, EcSecA; Table 1.
Target sequence in this assay (P0AG99 whole entry): as the sequence (P0AG99 whole entry) above
Target sequence in this assay (P10408 whole entry): as the sequence (P10408 whole entry) above
Target sequence in this assay (P0AGA2 whole entry, further chain): as the sequence (P0AGA2 whole entry, further chain) above
Target sequence in this assay (P0AG96 whole entry, further chain): as the sequence (P0AG96 whole entry, further chain) above
The target in a further assay is T4, SaSecA1 (Staphylococcus aureus, UniProt O06446).
T4 sequence (O06446 1-843): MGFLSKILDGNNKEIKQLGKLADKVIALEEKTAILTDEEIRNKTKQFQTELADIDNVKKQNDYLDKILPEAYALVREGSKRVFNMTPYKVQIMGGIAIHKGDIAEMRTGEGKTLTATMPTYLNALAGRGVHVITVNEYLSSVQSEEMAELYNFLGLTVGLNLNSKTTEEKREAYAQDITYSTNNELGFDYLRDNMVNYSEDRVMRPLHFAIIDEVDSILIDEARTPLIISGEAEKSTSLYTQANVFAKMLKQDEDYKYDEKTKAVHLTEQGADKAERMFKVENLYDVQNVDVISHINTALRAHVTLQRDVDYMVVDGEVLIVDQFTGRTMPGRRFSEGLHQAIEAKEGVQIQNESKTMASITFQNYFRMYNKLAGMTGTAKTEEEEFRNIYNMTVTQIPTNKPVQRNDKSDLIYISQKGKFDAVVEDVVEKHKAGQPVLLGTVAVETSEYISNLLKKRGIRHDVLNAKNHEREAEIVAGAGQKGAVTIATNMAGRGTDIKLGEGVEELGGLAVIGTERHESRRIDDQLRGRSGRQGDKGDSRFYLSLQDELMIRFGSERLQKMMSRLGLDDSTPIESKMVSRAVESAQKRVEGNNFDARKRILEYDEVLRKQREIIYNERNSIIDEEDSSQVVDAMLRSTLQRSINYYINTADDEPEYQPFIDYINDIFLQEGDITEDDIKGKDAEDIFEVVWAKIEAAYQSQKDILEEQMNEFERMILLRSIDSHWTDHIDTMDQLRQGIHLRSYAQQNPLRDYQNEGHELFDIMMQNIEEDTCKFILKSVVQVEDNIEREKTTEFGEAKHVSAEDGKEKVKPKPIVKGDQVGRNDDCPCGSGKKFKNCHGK
Conditions: read-out: IC50, Ion Channel activity, SaSecA1; Table 1.

A further assay deals with MtbSecA (Mycobacterium tuberculosis, UniProt P9WGP5). Kind of assay: cell-based.
MtbSecA, sequence (P9WGP5 whole entry): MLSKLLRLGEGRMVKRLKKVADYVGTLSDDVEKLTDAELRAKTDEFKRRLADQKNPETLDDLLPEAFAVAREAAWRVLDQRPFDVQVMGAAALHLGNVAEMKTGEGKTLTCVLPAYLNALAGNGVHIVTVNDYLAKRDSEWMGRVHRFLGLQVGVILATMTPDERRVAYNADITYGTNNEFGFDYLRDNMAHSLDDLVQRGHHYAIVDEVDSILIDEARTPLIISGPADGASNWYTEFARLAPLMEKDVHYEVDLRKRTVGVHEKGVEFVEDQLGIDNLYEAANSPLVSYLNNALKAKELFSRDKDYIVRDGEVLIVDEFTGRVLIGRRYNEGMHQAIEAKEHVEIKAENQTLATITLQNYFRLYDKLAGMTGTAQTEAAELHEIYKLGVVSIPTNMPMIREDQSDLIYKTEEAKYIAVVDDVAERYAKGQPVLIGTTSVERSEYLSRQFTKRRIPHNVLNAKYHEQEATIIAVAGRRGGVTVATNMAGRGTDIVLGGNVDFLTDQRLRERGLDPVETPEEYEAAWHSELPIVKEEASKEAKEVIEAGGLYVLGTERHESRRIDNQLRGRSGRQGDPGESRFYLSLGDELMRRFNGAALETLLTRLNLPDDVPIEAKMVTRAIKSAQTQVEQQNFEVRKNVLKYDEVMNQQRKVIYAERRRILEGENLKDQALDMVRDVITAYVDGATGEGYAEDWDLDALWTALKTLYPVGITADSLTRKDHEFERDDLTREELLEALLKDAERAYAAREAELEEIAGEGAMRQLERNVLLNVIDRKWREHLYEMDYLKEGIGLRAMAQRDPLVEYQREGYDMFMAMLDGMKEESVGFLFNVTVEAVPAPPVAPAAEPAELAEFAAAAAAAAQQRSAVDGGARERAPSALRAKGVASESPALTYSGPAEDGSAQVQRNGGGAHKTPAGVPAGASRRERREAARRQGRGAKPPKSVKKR

T1 sequence (P28366 whole entry): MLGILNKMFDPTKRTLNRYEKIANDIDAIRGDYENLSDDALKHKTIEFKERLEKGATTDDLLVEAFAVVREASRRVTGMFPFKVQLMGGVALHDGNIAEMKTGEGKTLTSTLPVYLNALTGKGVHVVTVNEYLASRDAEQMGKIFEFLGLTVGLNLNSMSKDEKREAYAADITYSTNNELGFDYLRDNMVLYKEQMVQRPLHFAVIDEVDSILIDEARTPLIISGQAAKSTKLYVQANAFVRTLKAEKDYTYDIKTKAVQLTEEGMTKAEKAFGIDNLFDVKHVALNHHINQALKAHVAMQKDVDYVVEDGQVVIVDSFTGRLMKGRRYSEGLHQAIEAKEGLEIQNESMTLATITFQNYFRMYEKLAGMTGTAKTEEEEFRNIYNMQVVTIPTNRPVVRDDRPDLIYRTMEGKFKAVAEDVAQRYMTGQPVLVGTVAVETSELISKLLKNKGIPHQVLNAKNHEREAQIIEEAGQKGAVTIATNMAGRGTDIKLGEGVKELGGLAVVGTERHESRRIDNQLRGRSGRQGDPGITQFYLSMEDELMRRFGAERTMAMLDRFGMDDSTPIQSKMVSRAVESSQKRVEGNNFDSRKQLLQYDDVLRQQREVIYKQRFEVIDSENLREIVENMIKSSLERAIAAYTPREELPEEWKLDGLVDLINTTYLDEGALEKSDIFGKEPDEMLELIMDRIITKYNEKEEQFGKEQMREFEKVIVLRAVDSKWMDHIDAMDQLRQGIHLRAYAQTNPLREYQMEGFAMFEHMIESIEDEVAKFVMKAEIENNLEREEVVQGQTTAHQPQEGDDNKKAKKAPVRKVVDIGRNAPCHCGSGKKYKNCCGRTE

As for `CSc1nc(Cl)cc(Sc2nnc(-c3cc(C(F)(F)F)cc(C(F)(F)F)c3)[nH]2)n1` [SCA-107], the concentration for half-maximal inhibition (IC50) was over 200000 nM on BsSecA [1]; 25000 nM against EcSecA [2]; 700 nM on BaSecA1; 65000 nM on BsSecA2; 1300 nM on PaSecA; 30000 nM at EcSecA N68. The IC50 was determined as 2500 nM at MsSecA; 700 nM on SpSecA; 1600 nM at EcSecA [3]; 50000 nM at SaSecA2; 2100 nM on BsSecA [4]; 28000 nM on EcSecA [5]. The results for the IC50 on SaSecA1 and at MtbSecA were 600 nM and 2000 nM, respectively. In addition, the MIC is 0.5 µM (≈ 0.236 µg/mL) in the assay on S. aureus Mu50 and 0.19 µM (≈ 0.0896 µg/mL) in the assay with S. pyogenes, MGAS5005.
